According to ChEMBL document CHEMBL3507680, “University of Dundee, Gates Library screen for HepG2 cell viability”:

Test: Human HepG2 cell viability assay in 384 well format
Format: toxicity, cell-based
Set-up: dose 125 nL, time 70.5 hour; cytotoxicity at 70.5 h: concentration not given beside the values
Conditions: HepG2 cells, read-out: Inhibition

SMILES	cytotoxicity at 70.5 h
COc1ccc(-n2c(SCC(=O)O)nnc2-c2cn[nH]c2)cc1	15.3%
O=C(CC1COCCN1)NCCc1nc(Cc2ccccc2)no1 (stereo not drawn)	-15.5%
CC(NC(=O)Nc1ccccc1CN1CCOCC1)c1nnc(N)s1 (stereo not drawn)	-11.9%
CCCn1cc(C(=O)NC(CC(=O)O)c2ccco2)c(C)n1 (stereo not drawn)	-8.82%
CN(Cc1cnc(N)nc1)C(=O)C1CC(=O)N(Cc2ccncc2)C1 (stereo not drawn)	-10.8%
Cc1csc2c(=O)n(CCN3CCC(c4ccccc4)CC3)cnc12	-3.26%
CCc1nc(C)sc1CN1CCc2[nH]nc(-c3ccc(F)c(F)c3)c2C1	-5.32%
COCc1ncc(CN2CC[C@@](C)(O)[C@@H](Cc3ccccc3)C2)cn1	-1.9%
COc1ccc(N2CCN(C(=O)CCn3nccc3C)CC2(C)C)cc1	1.97%
Cc1cc2cccc(NC(=O)N3CCC(N(C)C)C3)c2o1 (stereo not drawn)	-8.17%
Cc1cc(NC2CCN(c3ccc(F)cc3)CC2)n2nc(C)cc2n1	-1.64%
Cc1nc(-c2cccc(C(=O)O)c2)c[nH]1	15.3%
O=C(O)C1CCN(C[C@H]2CC[C@@H](Cc3ccc4c(c3)OCO4)O2)CC1	8.69%
COc1nccc(N2CC[C@@H](N3CCC(O)CC3)[C@H](O)C2)c1C#N	5.37%
CCOCC(=O)N1C[C@@H]2CC[C@H](C1)N(Cc1ccccn1)C2=O	-9.63%
CN1CCN(C(=O)c2cn3ccsc3n2)[C@H]2CS(=O)(=O)C[C@H]21	-11.3%
CCC(CO)N(Cc1ccc(F)cc1)Cc1c(C)nn(C)c1Cl (stereo not drawn)	-3.37%
COCc1noc(CC2CN(c3ncnc4sc(C)c(C)c34)CCO2)n1 (stereo not drawn)	1.73%
CC(C)[C@@H]1CN(Cc2cnc(C3CCCCC3)nc2)C[C@H]1N(C)C	8.03%
O=C(c1ccnc(N2CCOC(C(F)(F)F)C2)c1)N1CCCC1 (stereo not drawn)	8.43%
Cc1nonc1C1CCCN1C(=O)c1cc2n(n1)CCCNC2 (stereo not drawn)	4.03%
CN1CCN(CCCOc2ccccc2CN2C[C@H]3CC[C@H]2C3)CC1	17.4%

SMILES	cytotoxicity at 70.5 h
CCc1cnc(C)nc1N1CCC(Cc2cccc(C(=O)O)c2)C1 (stereo not drawn)	-7.7%
O=S(=O)(c1ccc(-c2nc3c([nH]2)CCNC3)cc1)N1CCCC1	-11.8%
CCn1c(C)cc(C(=O)N2C[C@@H](C(=O)O)[C@H](c3ccccc3C)C2)c1C	-8.47%
Cc1[nH]nc(CCC(=O)N2CCOC(CCc3ccccc3)C2)c1C (stereo not drawn)	-0.521%
Cc1nc(C(=O)N2CCN(C(=O)N(C)C)[C@@H]3CS(=O)(=O)C[C@@H]32)cs1	-5.31%
c1ccc(Cc2nc(C3CC3)nn2-c2ccc3c(c2)OCCO3)nc1	43.6%
Cc1nnsc1C(=O)NCc1cccnc1N(C)Cc1ccccc1	-7.67%
COC(=O)[C@@H]1C[C@H](NC(=O)Cn2c(=O)cc(C)c3ccccc32)CN1C	26.6%
CC(C)n1cc(C(=O)N2CCN(c3cccc(C(F)(F)F)c3)CC2)cn1	-5.28%
CC(C)C[C@@H](CO)n1cc(-c2cncnc2)nn1	1.71%
Cc1csc2c(=O)n(C(C)Cc3cccnc3)cnc12 (stereo not drawn)	-9.53%
CN(C)C(=O)N1C[C@@H]2CC[C@H](C1)N(Cc1nnc(-c3ccco3)o1)C2	10.9%
CC(C)NCc1cccnc1N1CCN(c2ccccn2)CC1	-11.6%
CN(Cc1ccn[nH]1)Cc1c[nH]nc1-c1ccc(F)cc1	-3.15%
c1cc(-c2ccc(CN3CCC4(CCNCC4)CC3)s2)[nH]n1	-2.82%
COc1ccc(CCN(C)C(C(=O)O)c2ccc(F)c(C)c2)cc1OC (stereo not drawn)	9.05%
CCC(CO)N(Cc1ccsc1)Cc1ccccc1C(=O)O (stereo not drawn)	-8.61%
CCN(C)[C@H]1CN(C(=O)c2cccc(N3CCS(=O)(=O)CC3)c2)C[C@@H]1O	-7.37%
Cn1nccc1NC(=O)Cn1ccc(-c2ccc3c(c2)OCO3)n1	-22.6%
CCN(CCO)C[C@@H]1CN(C(=O)c2sc3ccccc3c2C)C[C@@H]1CO	8.11%
COc1cccc2c1OCC(C(=O)NCCc1nc3c(s1)CCC3)C2 (stereo not drawn)	-5.62%
O=C(c1cccc(-n2cccn2)c1)N1CCCOC(Cn2cccn2)C1 (stereo not drawn)	12.9%

SMILES	cytotoxicity at 70.5 h
CSc1ccccc1C(=O)N1C[C@@H](N(C)C)[C@H](c2ccc(C)cc2)C1	-1.92%
CN1CCC(Cc2noc(CC3CC3)n2)CC1	-7.67%
O=C(c1ncccc1O)N1CCc2c(nc(-c3ccncc3)[nH]c2=O)C1	9.03%
O=C(NCCn1cc(Cl)cn1)C1CCN(C(=O)C2CC2)CC1	2.7%
Cn1ccc2ccc(C(=O)N3CCC[C@H]3C(=O)N3CCOCC3)cc21	-11.1%
COc1ccccc1N1CCN(Cc2ncc(C)c(OC)c2C)CC1=O	-6.77%
COc1ccc2c(c1)CC(C(=O)N(C)Cc1noc3c1CCCC3)CO2 (stereo not drawn)	-4.86%
Cc1cnc(C(=O)N2CCCC(c3nccn3Cc3cscn3)C2)cn1 (stereo not drawn)	-3.23%
CN(Cc1n[nH]c2c1CCC2)C(=O)c1cc(-c2cccn2C)n[nH]1	25.6%
CN(CC1(CO)CCCC1)c1nc2c(c(=O)[nH]1)Cc1ccccc1OC2	-10%
Cc1noc(C)c1CN1CC2(CCN(Cc3c[nH]cn3)CC2)CC1=O	-2.12%
CC(C)[C@@H]1CN(CC(=O)NCc2ccco2)C[C@H]1NS(=O)(=O)N(C)C	-3.9%
O=S(=O)(c1ccc2c(c1)OCCO2)N1CCc2ccccc2C1	-7.73%
CC(C)C1CN(C(=O)c2cc(=O)[nH]c(=O)[nH]2)CCCN1CC1CC1 (stereo not drawn)	-0.864%
Cc1ccccc1CSc1nc(N)cc(N2CCCC(C(N)=O)C2)n1 (stereo not drawn)	-2.56%
CCc1ocnc1C(=O)N1CCC(C2CCN(c3ncccn3)CC2)C1 (stereo not drawn)	1.07%
CC(=O)N[C@@H]1CN(C2CCN(c3cccc(Cl)c3)CC2)C[C@H]1C(C)C	-7.17%
CC(C)C(O)C(=O)N1CCC2(CC1)c1nc[nH]c1CCN2S(C)(=O)=O (stereo not drawn)	-6.39%
Cc1ccccc1CN(CCN(C)C)Cc1ccc(S(C)(=O)=O)cc1	4.23%
NC(=O)c1cc2c(nc1Oc1cccc(CN3CCCC3)c1F)CCC2	-13.8%
CS(=O)(=O)NCCNc1ncnc2cccc(F)c12	-6.37%
Cc1ccccc1CCC1CCCN(Cc2c(C)[nH]c(=O)[nH]c2=O)C1 (stereo not drawn)	-8.6%

SMILES	cytotoxicity at 70.5 h
COCc1noc(CNc2nc(C3CCCC3)nc3c2CCNCC3)n1	-10.6%
Cc1cc(N(C)CCn2ccnc2C)n2nccc2n1	-11.6%
CCCSCC(=O)N1C[C@H]2CC[C@@H]1CN(Cc1cccnc1)C2	6.46%
Nc1cc(-c2cccc3ccnn23)ccn1	-2.42%
COc1cc2c(cc1-c1nc3c(cnn3C(C)C(C)C)[nH]1)OCO2 (stereo not drawn)	-0.404%
CC(=O)NCc1nnc2n1CCN(c1ncnc3c1CCC3)CC2	25.3%
O=C(NCC(F)F)c1ccc(S(=O)(=O)NCCc2ccncc2)cc1	-11.1%
Cc1ccc(OC2(C(=O)NC(C)Cc3ccsc3)CCNCC2)cc1 (stereo not drawn)	7.16%
Cc1cc(C(F)(F)F)nc(CNC(=O)CCn2cccn2)n1	-6.34%
COc1ccc(F)c(F)c1CN1CCN(CC(C)C)C(=O)C1C (stereo not drawn)	25%
Cc1nn(C)c(C)c1-c1nc2cc(S(=O)(=O)N3CCCC3)ccc2n1C	-0.406%
Nc1cc(N2CCCC(Cc3ccc(F)cc3F)(C(=O)O)C2)ncn1 (stereo not drawn)	-5.98%
Cc1cccc(N2CCN(C(=O)C3CC4(CCNCC4)CN3)CC2)n1 (stereo not drawn)	5.27%
O=C(CCc1cc(O)no1)N1CCC(Cc2ccc(F)cc2)CC1	-12%
CCN1CCN(C[C@@H]2CN(c3ncc(Cl)cc3Cl)C[C@@H]2CO)CC1	-6.63%
C/C=C(\C)CN1CCCn2nc(CNC(=O)C3CCC3)cc2C1	-11.6%
O=c1[nH]cccc1-c1nccc(C2(c3ccccc3Cl)CCNCC2)n1	29.1%
COc1ccc(NC(=O)CCN2CC=C(c3cnn(C)c3)CC2)cc1Cl	5.66%
CCN(Cc1cc(Cl)ccc1OC)Cc1ncnn1CC	1.58%
O=C1Cc2cc(NC(=O)N3CCCN(Cc4cccs4)CC3)ccc2N1	-4.49%
CCN(Cc1cc(-c2ccccn2)no1)C1CCS(=O)(=O)C1 (stereo not drawn)	-9.24%
CCNC(=O)C1CCN(c2nc(-c3ccco3)nc3c2CCNCC3)C1 (stereo not drawn)	-7.78%

SMILES	cytotoxicity at 70.5 h
Clc1cccc2c3c([nH]c12)CCN(Cc1cc2n(n1)CCCNC2)C3	35.7%
CCCN1CCN(C(=O)c2cncnc2C)[C@H]2CS(=O)(=O)C[C@H]21	3.92%
CCOc1ccc(C(=O)CCC(=O)N(C)Cc2cnccn2)cc1C	10.8%
Cc1cc(C)cc(N2CCN(Cc3cccc(CCN)c3)CC2=O)c1	-2.46%
COc1ncc(-c2cc(NC3CCCC3)nc3[nH]ccc23)c(OC)n1	-12%
CC1=NOC(C(=O)N2CCC(O)(c3ccc4nc(C)ccc4c3)CC2)C1 (stereo not drawn)	-6.17%
C=C(C)COc1cccc(CNCCc2nc(N)cc(O)n2)c1	-9.19%
O=C(NC1CCOCC1)c1cccc(C2CCCNC2)c1 (stereo not drawn)	-10.4%
c1nc2c(c(NCCCn3cncn3)n1)CCN(CC1CCOC1)CC2 (stereo not drawn)	-2.03%
CCC(O)Cn1cc(C2=CCN(Cc3cc(O)nc(C)n3)CC2)cn1 (stereo not drawn)	10.8%
CCc1cc(N2CCC(NCCc3nc(C)c(C)s3)CC2)nc(C)n1	-12.2%
CC(C)[C@H]1CN(Cc2ccccc2C#N)C[C@@H]1NC(=O)C1CCOCC1	-13.1%
CC(Oc1ccc2c(c1)OCO2)C(=O)N1CCC(N2CCCC2)CC1 (stereo not drawn)	-4.56%
CCC(NC(=O)c1cc(CC(C)C)nn1C)c1ccnn1C (stereo not drawn)	-10.3%
OC1(CN2CCN(c3cccc(C(F)(F)F)c3)CC2)CNCCOC1 (stereo not drawn)	-12%
Cc1cnc(NCc2ccncc2)nc1-c1cnn(C)c1	12.6%
CCN1CCN(C(=O)CCC2CCN(C(=O)CCSC)CC2)CC1	22.6%
CCc1cc(N2CCC(NC3CN4CCC3CC4)CC2)nc(N(C)C)n1 (stereo not drawn)	29.4%
CC(C)C(C)n1nccc1NC(=O)Cn1cnc2ccccc21 (stereo not drawn)	-12.4%
CN1CCCC1c1ccc(C(=O)Nc2c3c(nn2C)CCC3)s1 (stereo not drawn)	-13%
